Results published in patent US9981960B2, “Pyrrolidine compound and application as melanocortin receptor agonist” (MITSUBISHI TANABE PHARMA CORPORATION, priority 2014, dated 2018).

biological target: T1, Human MC1R (Homo sapiens, UniProt Q01726); assay: MCR agonist measurement (cAMP measurement), human MC1R agonist activity in human melanoma cell line HBL; format: cell-based; details: HBL cells, 37° C. for 30 minutes, intracellular cAMP by fluorescence method
T1 construct: endogenous in cells; host or cells: human melanoma cell line HBL
T1 sequence (Q01726 whole entry): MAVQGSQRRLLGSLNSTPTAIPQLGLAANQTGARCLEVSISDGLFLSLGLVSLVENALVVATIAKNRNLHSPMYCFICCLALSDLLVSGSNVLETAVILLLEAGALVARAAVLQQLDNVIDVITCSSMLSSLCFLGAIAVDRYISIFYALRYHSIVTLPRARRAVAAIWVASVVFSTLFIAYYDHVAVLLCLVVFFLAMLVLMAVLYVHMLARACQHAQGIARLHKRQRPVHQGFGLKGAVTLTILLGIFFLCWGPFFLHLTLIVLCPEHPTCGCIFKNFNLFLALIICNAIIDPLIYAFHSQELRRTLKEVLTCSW
Protocol: (1) Method for Culturing Cells
Human MC1R agonist activity measurement was carried out by using human melanoma cell line HBL. Culture of HBL: F-10 Nutrient Mixture containing 10% FCS and Penicillin-streptomycin was used in the culture.
(2) cAMP Assay and Data Calculation
Each compound solution having each concentration was mixed with cAMP assay buffer (HBSS (Hank's Balanced Salt Solution) containing 10 mM HEPES and 0.1% BSA), and dispensed into 96 well plate. HBL was suspended in cAMP assay buffer containing 0.5 mM IBMX so that the concentrate became 5×10^4/mL, dispensed into the above 96 well plate, then mixed, left to stand at 37° C. for 30 minutes, and then the intracellular […] concentration was measured by fluorescence method using Envision (ex. 320 nm, em. 590 nm and 665 nm).

Compound	EC50 [nM]
COc1ccc([C@@H]2CN(C3CCCC3)C[C@@]2(F)C(=O)N2CCCC(c3ccc(C(F)(F)F)cc3N3CCC(C(=O)O)CC3)C2)cc1 (single isomer, unassigned) [Example 291]	734
COc1ccc([C@@H]2CN(C3CCCC3)C[C@@]2(F)C(=O)N2CCCC(c3ccc(C(F)(F)F)cc3N3CCC(C(=O)O)CC3)C2)cc1 (single isomer, unassigned) [Example 292]	217
COc1ccc([C@@H]2CN(C3CCCC3)C[C@@]2(F)C(=O)N2CC(c3ccc(C(F)(F)F)cc3N3CCC(C(=O)O)CC3)C(F)(F)C2)cc1 (single isomer, unassigned) [Example 294]	804
COc1ccc([C@@H]2CN(CCCS(=O)(=O)N3CCCC3)C[C@@]2(F)C(=O)N2CCC(c3ccc(C(F)(F)F)cc3N3CCC(C(=O)O)CC3)CC2)cc1 [Example 45]	23
COC[C@H]1CN(C(=O)[C@]2(F)CN(c3ccnc(OC)c3)C[C@H]2c2ccc(OC)cc2)C[C@@H]1c1ccc(C(F)(F)F)cc1N1CCC(C(=O)O)CC1 [Example 61]	30
COC[C@H]1CN(C(=O)[C@]2(F)CN(c3ccc(C)nn3)C[C@H]2c2ccc(OC)cc2)C[C@@H]1c1ccc(C(F)(F)F)cc1N1CCC(C(=O)O)CC1 [Example 63]	24
COc1ccc([C@@H]2CN(C(C)(C)C)C[C@@]2(F)C(=O)N2CCC(c3ccc(C(F)(F)F)cc3N3CCC(C(=O)O)CC3)CC2)c(F)c1 [Example 75]	57
COc1ccc([C@@H]2CN(C(C)(C)C)C[C@@]2(F)C(=O)N2CCC(c3ccc(C(F)(F)F)cc3-c3ccc(C(=O)O)cc3)CC2)cc1 [Example 77]	69
COc1ccc([C@@H]2CN(C(C)(C)C)C[C@@]2(F)C(=O)N2CCC(c3ccc(C(F)(F)F)cc3-c3nc(C(=O)O)co3)CC2)cc1 [Example 79]	67
COc1ccc([C@@H]2CN(C(C)(C)C)C[C@@]2(F)C(=O)N2CC(c3ccc(C(F)(F)F)cc3N3CCC(C(=O)O)CC3)C2)cc1 [Example 84]	40
COc1ccc([C@@H]2CN(C(C)(C)C)C[C@@]2(F)C(=O)N2CCC(c3ccc(C(F)(F)F)cc3[C@H]3CC[C@H](C(=O)O)CC3)CC2)cc1 [Example 85]	60
COc1ccc([C@@H]2CN(C(C)(C)C)C[C@@]2(F)C(=O)N2CCC(C#N)(c3ccc(C(F)(F)F)cc3-c3ccc(C(=O)O)cc3)CC2)cc1 [Example 87]	56
CCc1ccc([C@@H]2CN(C(C)(C)C)C[C@@]2(F)C(=O)N2CCC(c3ccc(C(F)(F)F)cc3N3CCC(C(=O)O)CC3)CC2)cc1 [Example 91]	44

These reach a lower EC50. Values come first.

EC50 [nM]	Compound
20	COc1ccc([C@@H]2CN(C3CCCC3)C[C@@]2(F)C(=O)N2CC(c3ccc(C(F)(F)F)cc3N3CCC(C(=O)O)CC3)C(F)(F)C2)cc1 (single isomer, unassigned) [Example 293]
17	COC[C@H]1CN(C(=O)[C@]2(F)CN(C3CCCC3)C[C@H]2c2ccc(C)cc2)C[C@@H]1c1ccc(C(F)(F)F)cc1N1CCC(C(=O)O)CC1 [Example 22]
6.5	COC[C@H]1CN(C(=O)[C@]2(F)CN(C3CCCCC3)C[C@H]2c2ccc(OC)cc2)C[C@@H]1c1ccc(C(F)(F)F)cc1N1CCC(C(=O)O)CC1 [Example 27]
1.2	COC[C@H]1CN(C(=O)[C@]2(F)CN(c3ccnc(C)c3)C[C@H]2c2ccc(OC)cc2)C[C@@H]1c1ccc(C(F)(F)F)cc1N1CCC(C(=O)O)CC1 [Example 59]
19	COC[C@H]1CN(C(=O)[C@]2(F)CN(c3ccc(OC)nn3)C[C@H]2c2ccc(OC)cc2)C[C@@H]1c1ccc(C(F)(F)F)cc1N1CCC(C(=O)O)CC1 [Example 64]
2	COC[C@@H]1C[C@@H](c2ccc(C(F)(F)F)cc2N2CCC(C(=O)O)CC2)CN1C(=O)[C@]1(F)CN(c2ccnc(C)n2)C[C@H]1c1ccc(OC)cc1 [Example 67]
0.94	COC[C@@H]1C[C@@H](c2ccc(C(F)(F)F)cc2N2CCC(C(=O)O)CC2)CN1C(=O)[C@]1(F)CN(c2ccnc(C)c2)C[C@H]1c1ccc(OC)cc1 [Example 68]

same assay, conditions: Intrinsic Activity; vehicle cAMP = 0%, αMSH at 10^-6 M = 100%; HBL cells

Compound	Human MC1R IA % [%]
COc1ccc([C@@H]2CN(C3CCCC3)C[C@@]2(F)C(=O)N2CCCC(c3ccc(C(F)(F)F)cc3N3CCC(C(=O)O)CC3)C2)cc1 (single isomer, unassigned) [Example 291]	67
COc1ccc([C@@H]2CN(C3CCCC3)C[C@@]2(F)C(=O)N2CCCC(c3ccc(C(F)(F)F)cc3N3CCC(C(=O)O)CC3)C2)cc1 (single isomer, unassigned) [Example 292]	25
COc1ccc([C@@H]2CN(C3CCCC3)C[C@@]2(F)C(=O)N2CC(c3ccc(C(F)(F)F)cc3N3CCC(C(=O)O)CC3)C(F)(F)C2)cc1 (single isomer, unassigned) [Example 294]	81
COc1ccc([C@@H]2CN(CCCS(=O)(=O)N3CCCC3)C[C@@]2(F)C(=O)N2CCC(c3ccc(C(F)(F)F)cc3N3CCC(C(=O)O)CC3)CC2)cc1 [Example 45]	105
COC[C@H]1CN(C(=O)[C@]2(F)CN(c3ccnc(OC)c3)C[C@H]2c2ccc(OC)cc2)C[C@@H]1c1ccc(C(F)(F)F)cc1N1CCC(C(=O)O)CC1 [Example 61]	69
COC[C@H]1CN(C(=O)[C@]2(F)CN(c3ccc(C)nn3)C[C@H]2c2ccc(OC)cc2)C[C@@H]1c1ccc(C(F)(F)F)cc1N1CCC(C(=O)O)CC1 [Example 63]	92
COc1ccc([C@@H]2CN(C(C)(C)C)C[C@@]2(F)C(=O)N2CCC(c3ccc(C(F)(F)F)cc3N3CCC(C(=O)O)CC3)CC2)c(F)c1 [Example 75]	111
COc1ccc([C@@H]2CN(C(C)(C)C)C[C@@]2(F)C(=O)N2CCC(c3ccc(C(F)(F)F)cc3-c3ccc(C(=O)O)cc3)CC2)cc1 [Example 77]	83
COc1ccc([C@@H]2CN(C(C)(C)C)C[C@@]2(F)C(=O)N2CCC(c3ccc(C(F)(F)F)cc3-c3nc(C(=O)O)co3)CC2)cc1 [Example 79]	103
COc1ccc([C@@H]2CN(C(C)(C)C)C[C@@]2(F)C(=O)N2CC(c3ccc(C(F)(F)F)cc3N3CCC(C(=O)O)CC3)C2)cc1 [Example 84]	119
COc1ccc([C@@H]2CN(C(C)(C)C)C[C@@]2(F)C(=O)N2CCC(c3ccc(C(F)(F)F)cc3[C@H]3CC[C@H](C(=O)O)CC3)CC2)cc1 [Example 85]	75
COc1ccc([C@@H]2CN(C(C)(C)C)C[C@@]2(F)C(=O)N2CCC(C#N)(c3ccc(C(F)(F)F)cc3-c3ccc(C(=O)O)cc3)CC2)cc1 [Example 87]	90
CCc1ccc([C@@H]2CN(C(C)(C)C)C[C@@]2(F)C(=O)N2CCC(c3ccc(C(F)(F)F)cc3N3CCC(C(=O)O)CC3)CC2)cc1 [Example 91]	74

Continued, values first:

Human MC1R IA % [%]	Compound
99	COc1ccc([C@@H]2CN(C3CCCC3)C[C@@]2(F)C(=O)N2CC(c3ccc(C(F)(F)F)cc3N3CCC(C(=O)O)CC3)C(F)(F)C2)cc1 (single isomer, unassigned) [Example 293]
74	COC[C@H]1CN(C(=O)[C@]2(F)CN(C3CCCC3)C[C@H]2c2ccc(C)cc2)C[C@@H]1c1ccc(C(F)(F)F)cc1N1CCC(C(=O)O)CC1 [Example 22]
78	COC[C@H]1CN(C(=O)[C@]2(F)CN(C3CCCCC3)C[C@H]2c2ccc(OC)cc2)C[C@@H]1c1ccc(C(F)(F)F)cc1N1CCC(C(=O)O)CC1 [Example 27]
98	COC[C@H]1CN(C(=O)[C@]2(F)CN(c3ccnc(C)c3)C[C@H]2c2ccc(OC)cc2)C[C@@H]1c1ccc(C(F)(F)F)cc1N1CCC(C(=O)O)CC1 [Example 59]
53	COC[C@H]1CN(C(=O)[C@]2(F)CN(c3ccc(OC)nn3)C[C@H]2c2ccc(OC)cc2)C[C@@H]1c1ccc(C(F)(F)F)cc1N1CCC(C(=O)O)CC1 [Example 64]
78	COC[C@@H]1C[C@@H](c2ccc(C(F)(F)F)cc2N2CCC(C(=O)O)CC2)CN1C(=O)[C@]1(F)CN(c2ccnc(C)n2)C[C@H]1c1ccc(OC)cc1 [Example 67]
111	COC[C@@H]1C[C@@H](c2ccc(C(F)(F)F)cc2N2CCC(C(=O)O)CC2)CN1C(=O)[C@]1(F)CN(c2ccnc(C)c2)C[C@H]1c1ccc(OC)cc1 [Example 68]
